Common to all, as to assay type: in vivo
The subject of series [1] is Alopecurus myosuroides (ALOMY). Put plainly: Glasshouse assay for herbicidal activity (pre- and post-emergence), percentage phytotoxicity. Particulars: Alopecurus myosuroides, Rate 250 g/ha, 100%=total damage, 0%=no damage. The method in brief: (§1)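 Potted test plants in standard soil received the compound pre-emergence (day 1) or post-emergence (about day 12). Evaluation: visual damage score from 0% (none) to 100% (total), 15 days after application post-emergence, 20 days pre-emergence.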

Series [2] has as its system Avena fatua (AVEFA). Described as above. Particulars: Avena fatua, Rate 250 g/ha, 100%=total damage, 0%=no damage. An outline of the steps:
as §1

The subject of series [3] is Echinochloa crus-galli (ECHCG). The description is as above. The conditions noted are these: Echinochloa crus-galli, Rate 250 g/ha, 100%=total damage, 0%=no damage. The method in brief: as §1
Series [4] has as its system Lolium perenne (LOLPE). The series is described as above. The conditions noted are these: Lolium perenne, Rate 250 g/ha, 100%=total damage, 0%=no damage. An outline of the steps:
as §1

Series [5] concerns Winter Wheat variety 'Hereward'. Briefly: Glasshouse assay for crop safety, post-emergence, +/- safener cloquintocet-mexyl (CQC), percentage phytotoxicity. The conditions noted are these: 250 g/ha, evaluated after 13 days, 100=total damage, 0=no damage; for Post-emergence Crop Selectivity, percentage phytotoxicity, Wheat +CQC: with safener cloquintocet-mexyl (CQC) seed treatment 0.5 g/kg seed; for Post-emergence Crop Selectivity, percentage phytotoxicity, Wheat − CQC: without safener cloquintocet-mexyl (CQC). The source says: Test—Glasshouse Assay for Crop Safety.
Seeds of the Winter Wheat variety ‘Hereward’ were seed treated with a wettable powder formulation of the cereal herbicide safener, cloquintocet mexyl, at a rate of 0.5 grams per kilogram of dry seed prior to the initiation of glasshouse testing. Three seeds were sown per 1.5 inch plastic pot into a sandy loam soil at a depth of 1 cm, 8 days prior to application of the test compounds and was watered and grown under controlled conditions in a glasshouse (at 24/16° C., day/night; 14 hours light; 65% humidity). The plants were sprayed Post-emergence with an aqueous spray solution derived from the formulation of the technical active ingredient in acetone/water (50:50) solution containing 0.5% Tween 20 (polyoxyethelyene sorbitan monolaurate, CAS RN 9005-64-5).
The test plants were then grown in a glasshouse under controlled conditions (at 24/16° C., day/night; 14 hours light; 65% humidity) and watered twice daily. After 13 days for pre and post-emergence, the test was evaluated (100=total damage to plant; 0=no damage to plant).

[6] abbreviates: post-emergence, 360 h, post-emergence, assessed visually 15 DAA, read-out: Post-emergence herbicidal activity (percentage phytotoxicity) ALOMY POST.
[7] abbreviates: pre-emergence, 480 h, pre-emergence, assessed visually 20 DAA, read-out: Pre-emergence herbicidal activity (percentage phytotoxicity) ALOMY PRE.
Where [8] appears, read: post-emergence, 360 h, post-emergence, assessed visually 15 DAA, read-out: Post-emergence herbicidal activity (percentage phytotoxicity) AVEFA POST.
Setting [9] is: pre-emergence, 480 h, pre-emergence, assessed visually 20 DAA, read-out: Pre-emergence herbicidal activity (percentage phytotoxicity) AVEFA PRE.
Setting [10] is: post-emergence, 360 h, post-emergence, assessed visually 15 DAA, read-out: Post-emergence herbicidal activity (percentage phytotoxicity) ECHCG POST.
[11] abbreviates: pre-emergence, 480 h, pre-emergence, assessed visually 20 DAA, read-out: Pre-emergence herbicidal activity (percentage phytotoxicity) ECHCG PRE.
[12] abbreviates: post-emergence, 360 h, post-emergence, assessed visually 15 DAA, read-out: Post-emergence herbicidal activity (percentage phytotoxicity) LOLPE POST.
[13] abbreviates: pre-emergence, 480 h, pre-emergence, assessed visually 20 DAA, read-out: Pre-emergence herbicidal activity (percentage phytotoxicity) LOLPE PRE.

The structures appear in SMILES notation. Read-outs that look alike come from different tables or passages of the source.

On to `Cc1cc(C)c(C2C(=O)CC(CC(=O)NC3(c4ccccn4)CC3)C2=O)c(C)c1` (stereo not drawn) [Compound A18], for which the pest or weed control at 250 g/ha in series [1] (setting [6]) came out at 70%; in series [1] (setting [7]) it was 60%; in series [2] (setting [8]), 50%; in series [2] (setting [9]) it was 20%; in series [3] (setting [10]) it was 70%; in series [3] (setting [11]), 60%. Besides, the results for the pest or weed control at 250 g/ha in series [4] (setting [12]) and in series [4] (setting [13]) were 80% and 60%, respectively. The “Post-emergence Crop Selectivity, percentage phytotoxicity, Wheat +CQC” value in series [5] is listed as 20%. Besides, the “Post-emergence Crop Selectivity, percentage phytotoxicity, Wheat − CQC” value in series [5] is 70%.

Take `CCCN(C)C(=O)CC1CC(=O)C(c2c(C)cc(C)cc2C)C1=O` (stereo not drawn) [Compound A25]: the pest or weed control at 250 g/ha in series [1] (setting [6]) amounted to 70%; in series [1] (setting [7]), 70%; in series [2] (setting [8]), 70%; in series [2] (setting [9]), 70%; in series [3] (setting [10]) it was 90%; in series [3] (setting [11]), 80%. Further, the pest or weed control at 250 g/ha in series [4] (setting [12]) and in series [4] (setting [13]) was 90% each time. In addition, the “Post-emergence Crop Selectivity, percentage phytotoxicity, Wheat +CQC” value in series [5] was found to be 0%. Besides, the “Post-emergence Crop Selectivity, percentage phytotoxicity, Wheat − CQC” value in series [5] came out at 40%.

As to `CCC(C)NC(=O)CC1CC(=O)C(c2c(C)cc(C)cc2C)C1=O` (stereo not drawn) [Compound A3], the pest or weed control at 250 g/ha in series [1] (setting [6]) worked out at 90%; in series [1] (setting [7]), 100%; in series [2] (setting [8]) it was 90%; in series [2] (setting [9]), 90%; in series [3] (setting [10]) it was 90%; in series [3] (setting [11]), 100%. Also, the pest or weed control at 250 g/ha worked out at 90% in series [4] (setting [12]) and 100% in series [4] (setting [13]). Also, the “Post-emergence Crop Selectivity, percentage phytotoxicity, Wheat +CQC” value in series [5] is reported as 10%. Further, in series [5], the “Post-emergence Crop Selectivity, percentage phytotoxicity, Wheat − CQC” value was 60%.

With `Cc1cc(-c2ccc(F)cn2)cc(C)c1C1C(=O)CC(CC(=O)NC(C)(C)C)C1=O` (stereo not drawn) [Compound A80], the pest or weed control at 250 g/ha in series [1] (setting [6]) amounted to 100%; in series [1] (setting [7]) it was 100%; in series [2] (setting [8]) it was 100%; in series [2] (setting [9]) it was 90%; in series [3] (setting [10]), 100%; in series [3] (setting [11]), 100%. Moreover, the pest or weed control at 250 g/ha in series [4] (setting [12]) and in series [4] (setting [13]) was 100% throughout. The “Post-emergence Crop Selectivity, percentage phytotoxicity, Wheat +CQC” value in series [5] was found to be 20%. The “Post-emergence Crop Selectivity, percentage phytotoxicity, Wheat − CQC” value in series [5] amounted to 70%.

With `Cc1cc(C)c(C2C(=O)CC(CC(=O)NC(C)C)C2=O)c(C)c1` (stereo not drawn) [Compound A7], the pest or weed control at 250 g/ha in series [1] (setting [6]) amounted to 90%; in series [1] (setting [7]), 80%; in series [2] (setting [8]) it was 90%; in series [2] (setting [9]) it was 60%; in series [3] (setting [10]), 100%; in series [3] (setting [11]), 90%. Further, the pest or weed control at 250 g/ha in series [4] (setting [12]) and in series [4] (setting [13]) was 100% in each case. In addition, the “Post-emergence Crop Selectivity, percentage phytotoxicity, Wheat +CQC” value in series [5] was 20%. The “Post-emergence Crop Selectivity, percentage phytotoxicity, Wheat − CQC” value in series [5] was determined as 30%.

`Cc1cc(C)c(C2C(=O)CC(CC(=O)NC(C)(C)C)C2=O)c(C)c1` (stereo not drawn) [Compound A2, N-tert-butyl-2-[2,4-dioxo-3-(2,4,6-trimethylphenyl)cyclopentyl]-acetamide]: the pest or weed control at 250 g/ha worked out at 80% in series [1] (setting [6]); 80% in series [1] (setting [7]); 70% in series [2] (setting [8]); 10% in series [2] (setting [9]); 50% in series [3] (setting [10]); 70% in series [3] (setting [11]). Further, the pest or weed control at 250 g/ha in series [4] (setting [12]) and in series [4] (setting [13]) was 80% throughout. In series [5], the “Post-emergence Crop Selectivity, percentage phytotoxicity, Wheat +CQC” value was determined as 10%. The “Post-emergence Crop Selectivity, percentage phytotoxicity, Wheat − CQC” value in series [5] is 10%.

The record behind these values is patent US10206394B2, “Herbicidal compounds” (Syngenta Participations AG, priority 2014, dated 2019).
